# Measurements reported in paper PMC11314561, “Design and Synthesis of Novel Aminoindazole-pyrrolo[2,3-b]pyridine Inhibitors of IKKα That Selectively Perturb Cellular Non-Canonical NF-κB Signalling” (Molecules, 2024).
# What was measured:
# Experiment in all cases: kinase panel
# Assay type in all cases: biochemical
# BTK(h) = BTK(h) (Homo sapiens, UniProt Q06187)
# In short: (§1)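 Three compounds in the series were profiled against a panel of 231 kinases, and activity is reported as % inhibition. For one compound, a subset of 98 kinases was selected on the basis of its structural similarity to another series member.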
# WNK2(h) = WNK2(h) (Homo sapiens, UniProt Q9Y3S1)
# In short: as §1
# MST1(h) = MST1(h) (Homo sapiens, UniProt Q13043)
# In short: as §1
# NLK(h) = NLK(h) (Homo sapiens, UniProt Q9UBE8)
# In short: as §1
# PDGFRα(h) = PDGFRα(h) (Homo sapiens, UniProt P16234)
# In short: as §1
# p70S6K(h) = p70S6K(h) (Homo sapiens, UniProt P23443)
# In short: as §1
# EphB1(h) = EphB1(h) (Homo sapiens, UniProt P54762)
# In short: as §1
# TSSK2(h) = TSSK2(h) (Homo sapiens, UniProt Q96PF2)
# In short: as §1
# Lck(h) activated = Lck(h) activated (Homo sapiens, UniProt P06239)
# In short: as §1
# JNK2α2(h) = JNK2α2(h) (Homo sapiens, UniProt P45984)
# In short: as §1
# PTK5(h) = PTK5(h) (Homo sapiens, UniProt P42685)
# In short: as §1
# NEK11(h) = NEK11(h) (Homo sapiens, UniProt Q8NG66)
# In short: as §1
# TSSK1(h) = TSSK1(h) (Homo sapiens, UniProt Q9BXA7)
# In short: as §1
# MSSK1(h) = MSSK1(h) (Homo sapiens, UniProt Q9UPE1)
# In short: as §1
# ULK2(h) = ULK2(h) (Homo sapiens, UniProt Q8IYT8)
# In short: as §1
# PKCε(h) = PKCε(h) (Homo sapiens, UniProt Q02156)
# In short: as §1
# Lyn(h) = Lyn(h) (Homo sapiens, UniProt P07948)
# In short: as §1
# LKB1(h) = LKB1(h) (Homo sapiens, UniProt Q15831)
# In short: as §1
# LOK(h) = LOK(h) (Homo sapiens, UniProt O94804)
# In short: as §1
# IR(h), activated = IR(h), activated (Homo sapiens, UniProt P06213)
# In short: as §1
# TAO3(h) = TAO3(h) (Homo sapiens, UniProt Q9H2K8)
# In short: as §1
# PKBβ(h) = PKBβ(h) (Homo sapiens, UniProt P31751)
# In short: as §1
# Tec(h) activated = Tec(h) activated (Homo sapiens, UniProt P42680)
# In short: as §1
# DDR2(h) = DDR2(h) (Homo sapiens, UniProt Q16832)
# In short: as §1
# PKCβI(h) = PKCβI(h) (Homo sapiens, UniProt P05771)
# In short: as §1
# Blk(h) = Blk(h) (Homo sapiens, UniProt P51451)
# In short: as §1
# MuSK(h) = MuSK(h) (Homo sapiens, UniProt O15146)
# In short: as §1
# DCAMKL2(h) = DCAMKL2(h) (Homo sapiens, UniProt Q8N568)
# In short: as §1
# EphA2(h) = EphA2(h) (Homo sapiens, UniProt P29317)
# In short: as §1
# EphA5(h) = EphA5(h) (Homo sapiens, UniProt P54756)
# In short: as §1
# DRAK1(h) = DRAK1(h) (Homo sapiens, UniProt Q9UEE5)
# In short: as §1
# FAK(h) = FAK(h) (Homo sapiens, UniProt Q05397)
# In short: as §1
# GRK6(h) = GRK6(h) (Homo sapiens, UniProt P43250)
# In short: as §1
# EphA8(h) = EphA8(h) (Homo sapiens, UniProt P29322)
# In short: as §1
# PKG1β(h) = PKG1β(h) (Homo sapiens, UniProt Q13976)
# In short: as §1
# PAK6(h) = PAK6(h) (Homo sapiens, UniProt Q9NQU5)
# In short: as §1
# PKCγ(h) = PKCγ(h) (Homo sapiens, UniProt P05129)
# In short: as §1
# SGK3(h) = SGK3(h) (Homo sapiens, UniProt Q96BR1)
# In short: as §1
# Rse(h) = Rse(h) (Homo sapiens, UniProt Q06418)
# In short: as §1
# DAPK2(h) = DAPK2(h) (Homo sapiens, UniProt Q9UIK4)
# In short: as §1
# NEK7(h) = NEK7(h) (Homo sapiens, UniProt Q8TDX7)
# In short: as §1
# EphA3(h) = EphA3(h) (Homo sapiens, UniProt P29320)
# In short: as §1
# Chain of NEK11(h) (Q8NG66 whole entry): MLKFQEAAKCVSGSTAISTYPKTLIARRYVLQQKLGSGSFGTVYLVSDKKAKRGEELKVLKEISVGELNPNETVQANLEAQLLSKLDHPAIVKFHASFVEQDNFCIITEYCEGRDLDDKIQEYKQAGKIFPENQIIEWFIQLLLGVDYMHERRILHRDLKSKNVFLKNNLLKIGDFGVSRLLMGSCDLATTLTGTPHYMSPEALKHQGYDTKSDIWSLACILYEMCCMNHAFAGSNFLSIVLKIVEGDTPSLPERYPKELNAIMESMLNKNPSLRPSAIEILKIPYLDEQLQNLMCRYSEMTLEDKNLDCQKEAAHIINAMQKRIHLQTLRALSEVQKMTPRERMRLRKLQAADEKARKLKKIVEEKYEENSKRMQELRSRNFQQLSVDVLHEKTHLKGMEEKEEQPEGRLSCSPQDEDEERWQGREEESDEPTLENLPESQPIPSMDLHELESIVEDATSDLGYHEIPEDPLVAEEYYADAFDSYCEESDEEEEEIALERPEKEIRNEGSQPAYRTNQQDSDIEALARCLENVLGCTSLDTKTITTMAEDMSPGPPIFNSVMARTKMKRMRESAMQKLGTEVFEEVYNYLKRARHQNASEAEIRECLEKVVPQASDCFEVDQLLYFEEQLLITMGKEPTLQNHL
# Chain of DDR2(h) (Q16832 22-855): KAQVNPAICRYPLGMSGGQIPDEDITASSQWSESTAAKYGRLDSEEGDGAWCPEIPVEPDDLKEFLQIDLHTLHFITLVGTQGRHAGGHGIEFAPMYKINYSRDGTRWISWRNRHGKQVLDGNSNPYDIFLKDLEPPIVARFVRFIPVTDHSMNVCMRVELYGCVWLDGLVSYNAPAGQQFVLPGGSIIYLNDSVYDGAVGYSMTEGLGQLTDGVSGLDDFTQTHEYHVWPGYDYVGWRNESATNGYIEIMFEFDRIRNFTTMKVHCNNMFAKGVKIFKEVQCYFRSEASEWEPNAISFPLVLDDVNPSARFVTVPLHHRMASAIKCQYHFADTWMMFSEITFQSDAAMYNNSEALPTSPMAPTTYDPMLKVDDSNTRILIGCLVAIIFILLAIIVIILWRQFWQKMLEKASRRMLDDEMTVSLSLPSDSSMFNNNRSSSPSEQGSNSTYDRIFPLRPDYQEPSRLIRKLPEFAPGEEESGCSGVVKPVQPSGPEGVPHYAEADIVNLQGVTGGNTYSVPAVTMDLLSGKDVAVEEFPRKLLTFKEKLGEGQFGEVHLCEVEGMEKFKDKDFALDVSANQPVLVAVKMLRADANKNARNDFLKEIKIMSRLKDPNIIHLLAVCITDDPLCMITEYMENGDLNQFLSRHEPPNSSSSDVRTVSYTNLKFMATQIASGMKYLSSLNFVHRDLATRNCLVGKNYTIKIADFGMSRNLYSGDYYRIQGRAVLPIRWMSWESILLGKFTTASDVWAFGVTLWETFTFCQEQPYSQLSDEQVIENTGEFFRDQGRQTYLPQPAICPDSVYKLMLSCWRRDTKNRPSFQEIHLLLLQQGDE
# Chain of LOK(h) (O94804 whole entry): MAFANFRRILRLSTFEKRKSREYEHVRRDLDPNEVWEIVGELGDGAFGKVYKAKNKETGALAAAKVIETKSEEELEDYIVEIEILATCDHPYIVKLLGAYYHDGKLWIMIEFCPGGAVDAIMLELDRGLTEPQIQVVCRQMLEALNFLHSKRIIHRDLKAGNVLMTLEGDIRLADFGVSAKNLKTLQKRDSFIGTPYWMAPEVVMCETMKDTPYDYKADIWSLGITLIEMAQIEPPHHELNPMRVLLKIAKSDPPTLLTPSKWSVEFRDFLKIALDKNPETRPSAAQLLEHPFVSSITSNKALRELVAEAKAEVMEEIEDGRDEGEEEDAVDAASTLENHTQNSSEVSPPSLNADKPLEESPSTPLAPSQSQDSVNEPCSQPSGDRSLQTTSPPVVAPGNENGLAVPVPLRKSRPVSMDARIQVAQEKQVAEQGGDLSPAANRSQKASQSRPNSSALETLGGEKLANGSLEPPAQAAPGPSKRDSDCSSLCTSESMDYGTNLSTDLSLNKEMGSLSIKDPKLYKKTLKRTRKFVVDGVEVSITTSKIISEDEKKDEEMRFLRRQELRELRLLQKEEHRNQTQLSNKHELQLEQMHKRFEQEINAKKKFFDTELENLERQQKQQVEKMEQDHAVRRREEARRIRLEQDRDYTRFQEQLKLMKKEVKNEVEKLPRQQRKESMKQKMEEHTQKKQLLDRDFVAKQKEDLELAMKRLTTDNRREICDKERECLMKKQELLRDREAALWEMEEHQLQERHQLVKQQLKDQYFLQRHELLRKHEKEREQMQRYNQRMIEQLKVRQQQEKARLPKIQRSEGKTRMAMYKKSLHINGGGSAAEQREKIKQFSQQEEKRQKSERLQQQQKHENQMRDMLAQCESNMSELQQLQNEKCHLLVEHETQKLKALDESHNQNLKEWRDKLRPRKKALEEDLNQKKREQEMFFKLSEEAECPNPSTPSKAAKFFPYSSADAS
# Chain of Blk(h) (P51451 whole entry): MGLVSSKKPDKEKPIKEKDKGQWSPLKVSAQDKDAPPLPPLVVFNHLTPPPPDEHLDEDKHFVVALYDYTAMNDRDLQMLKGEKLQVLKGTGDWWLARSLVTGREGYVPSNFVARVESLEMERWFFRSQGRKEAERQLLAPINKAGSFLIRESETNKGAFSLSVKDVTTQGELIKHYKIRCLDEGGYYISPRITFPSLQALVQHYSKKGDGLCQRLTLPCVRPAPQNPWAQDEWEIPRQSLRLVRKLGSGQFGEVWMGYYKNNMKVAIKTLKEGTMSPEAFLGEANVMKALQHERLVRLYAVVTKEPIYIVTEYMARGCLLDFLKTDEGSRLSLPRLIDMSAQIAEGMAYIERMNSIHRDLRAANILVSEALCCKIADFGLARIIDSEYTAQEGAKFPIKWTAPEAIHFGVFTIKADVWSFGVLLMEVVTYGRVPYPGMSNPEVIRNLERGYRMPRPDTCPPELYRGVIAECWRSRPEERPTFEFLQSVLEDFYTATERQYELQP
# Chain of TAO3(h) (Q9H2K8 whole entry): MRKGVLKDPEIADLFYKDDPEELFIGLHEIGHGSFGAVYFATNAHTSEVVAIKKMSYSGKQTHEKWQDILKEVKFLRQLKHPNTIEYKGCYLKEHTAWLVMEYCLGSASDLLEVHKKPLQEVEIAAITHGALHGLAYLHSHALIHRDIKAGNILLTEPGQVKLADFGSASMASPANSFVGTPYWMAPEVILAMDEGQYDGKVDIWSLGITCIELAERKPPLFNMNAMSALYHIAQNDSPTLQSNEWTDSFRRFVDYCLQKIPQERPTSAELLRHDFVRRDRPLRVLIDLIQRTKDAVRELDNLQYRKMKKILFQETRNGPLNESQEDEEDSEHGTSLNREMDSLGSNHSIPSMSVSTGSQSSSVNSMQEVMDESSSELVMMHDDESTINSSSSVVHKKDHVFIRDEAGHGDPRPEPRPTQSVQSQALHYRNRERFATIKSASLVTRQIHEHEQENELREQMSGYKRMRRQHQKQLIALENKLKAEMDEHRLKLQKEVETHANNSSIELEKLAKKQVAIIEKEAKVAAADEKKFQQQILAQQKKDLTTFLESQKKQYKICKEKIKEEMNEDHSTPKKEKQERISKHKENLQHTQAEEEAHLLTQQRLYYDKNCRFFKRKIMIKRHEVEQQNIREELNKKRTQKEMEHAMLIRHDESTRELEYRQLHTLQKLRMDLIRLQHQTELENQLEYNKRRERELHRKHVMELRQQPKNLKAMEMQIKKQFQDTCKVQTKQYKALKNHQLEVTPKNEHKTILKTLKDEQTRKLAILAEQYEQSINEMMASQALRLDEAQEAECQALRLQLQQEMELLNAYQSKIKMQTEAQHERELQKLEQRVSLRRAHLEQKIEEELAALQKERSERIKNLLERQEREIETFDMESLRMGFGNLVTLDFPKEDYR
# Chain of PKBβ(h) (P31751 whole entry): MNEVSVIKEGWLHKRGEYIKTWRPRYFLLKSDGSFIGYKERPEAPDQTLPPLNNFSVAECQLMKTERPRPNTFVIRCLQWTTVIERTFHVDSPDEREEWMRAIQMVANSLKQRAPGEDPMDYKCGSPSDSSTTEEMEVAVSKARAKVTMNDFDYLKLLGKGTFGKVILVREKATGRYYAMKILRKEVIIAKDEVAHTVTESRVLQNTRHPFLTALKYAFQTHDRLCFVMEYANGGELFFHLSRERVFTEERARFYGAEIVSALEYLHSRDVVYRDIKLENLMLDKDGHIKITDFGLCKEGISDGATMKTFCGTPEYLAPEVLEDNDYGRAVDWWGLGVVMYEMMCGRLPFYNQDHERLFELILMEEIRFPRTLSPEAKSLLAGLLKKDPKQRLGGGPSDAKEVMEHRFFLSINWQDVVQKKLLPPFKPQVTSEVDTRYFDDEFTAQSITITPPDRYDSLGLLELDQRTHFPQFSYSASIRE
# Chain of BTK(h) (Q06187 whole entry): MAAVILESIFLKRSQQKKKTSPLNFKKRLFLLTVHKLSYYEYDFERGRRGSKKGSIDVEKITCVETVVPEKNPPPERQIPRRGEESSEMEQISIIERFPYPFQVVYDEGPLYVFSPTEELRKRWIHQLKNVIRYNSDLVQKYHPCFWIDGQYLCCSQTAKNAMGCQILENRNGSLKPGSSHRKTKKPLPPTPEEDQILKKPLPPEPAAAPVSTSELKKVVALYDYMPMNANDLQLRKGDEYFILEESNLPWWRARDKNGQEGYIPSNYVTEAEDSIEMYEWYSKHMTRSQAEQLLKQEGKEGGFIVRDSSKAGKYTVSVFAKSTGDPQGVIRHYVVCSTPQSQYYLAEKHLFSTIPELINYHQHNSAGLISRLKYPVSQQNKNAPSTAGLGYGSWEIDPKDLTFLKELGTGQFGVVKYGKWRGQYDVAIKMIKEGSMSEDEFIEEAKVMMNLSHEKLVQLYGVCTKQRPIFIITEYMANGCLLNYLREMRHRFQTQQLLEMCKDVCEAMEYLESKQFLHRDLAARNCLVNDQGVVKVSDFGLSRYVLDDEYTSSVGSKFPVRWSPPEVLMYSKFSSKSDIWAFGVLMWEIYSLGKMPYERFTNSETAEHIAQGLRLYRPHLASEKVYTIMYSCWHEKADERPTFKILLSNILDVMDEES
compound,measurement,setting,value
Nc1n[nH]c2ccc(-c3ccnc4[nH]c(-c5ccccc5)cc34)cc12 [Compound 4],inhibition at 1 µM,BTK(h),11%
same,inhibition at 1 µM,WNK2(h),29%
same,inhibition at 1 µM,MST1(h),33%
same,inhibition at 1 µM,NLK(h),51%
same,inhibition at 1 µM,PDGFRα(h),8%
same,inhibition at 1 µM,p70S6K(h),33%
same,inhibition at 1 µM,EphB1(h),63%
same,inhibition at 1 µM,TSSK2(h),-9%
same,inhibition at 1 µM,Lck(h) activated,44%
same,inhibition at 1 µM,JNK2α2(h),22%
same,inhibition at 1 µM,PTK5(h),74%
same,inhibition at 1 µM,NEK11(h),4%
same,inhibition at 1 µM,TSSK1(h),34%
same,inhibition at 1 µM,MSSK1(h),12%
same,inhibition at 1 µM,ULK2(h),2%
same,inhibition at 1 µM,PKCε(h),-14%
same,inhibition at 1 µM,Lyn(h),77%
same,inhibition at 1 µM,LKB1(h),15%
same,inhibition at 1 µM,LOK(h),67%
same,inhibition at 1 µM,"IR(h), activated",46%
same,inhibition at 1 µM,TAO3(h),36%
same,inhibition at 1 µM,PKBβ(h),3%
same,inhibition at 1 µM,Tec(h) activated,29%
same,inhibition at 1 µM,DDR2(h),16%
same,inhibition at 1 µM,PKCβI(h),-2%
same,inhibition at 1 µM,Blk(h),37%
same,inhibition at 1 µM,MuSK(h),48%
same,inhibition at 1 µM,DCAMKL2(h),33%
same,inhibition at 1 µM,EphA2(h),14%
same,inhibition at 1 µM,EphA5(h),19%
same,inhibition at 1 µM,DRAK1(h),67%
same,inhibition at 1 µM,FAK(h),35%
same,inhibition at 1 µM,GRK6(h),0%
same,inhibition at 1 µM,EphA8(h),-2%
same,inhibition at 1 µM,PKG1β(h),13%
same,inhibition at 1 µM,PAK6(h),32%
same,inhibition at 1 µM,PKCγ(h),-5%
same,inhibition at 1 µM,SGK3(h),-8%
same,inhibition at 1 µM,Rse(h),30%
same,inhibition at 1 µM,DAPK2(h),2%
same,inhibition at 1 µM,NEK7(h),-2%
same,inhibition at 1 µM,EphA3(h),19%
Nc1n[nH]c2ccc(-c3ccnc4[nH]c(-c5cccc(OCc6ccccc6)c5)cc34)cc12 [Compound 5r [SU1261]],inhibition at 1 µM,BTK(h),3%
same,inhibition at 1 µM,WNK2(h),22%
same,inhibition at 1 µM,MST1(h),4%
same,inhibition at 1 µM,NLK(h),1%
same,inhibition at 1 µM,PDGFRα(h),-12%
same,inhibition at 1 µM,p70S6K(h),-15%
same,inhibition at 1 µM,EphB1(h),14%
same,inhibition at 1 µM,TSSK2(h),-9%
same,inhibition at 1 µM,Lck(h) activated,23%
same,inhibition at 1 µM,JNK2α2(h),-6%
same,inhibition at 1 µM,PTK5(h),29%
same,inhibition at 1 µM,NEK11(h),-6%
same,inhibition at 1 µM,TSSK1(h),14%
same,inhibition at 1 µM,MSSK1(h),13%
same,inhibition at 1 µM,ULK2(h),-4%
same,inhibition at 1 µM,PKCε(h),0%
same,inhibition at 1 µM,Lyn(h),31%
same,inhibition at 1 µM,LKB1(h),17%
same,inhibition at 1 µM,LOK(h),51%
same,inhibition at 1 µM,"IR(h), activated",23%
same,inhibition at 1 µM,TAO3(h),4%
same,inhibition at 1 µM,PKBβ(h),-5%
same,inhibition at 1 µM,Tec(h) activated,62%
same,inhibition at 1 µM,DDR2(h),-17%
same,inhibition at 1 µM,PKCβI(h),-6%
same,inhibition at 1 µM,Blk(h),-4%
same,inhibition at 1 µM,MuSK(h),13%
same,inhibition at 1 µM,DCAMKL2(h),6%
same,inhibition at 1 µM,EphA2(h),-9%
same,inhibition at 1 µM,EphA5(h),8%
same,inhibition at 1 µM,DRAK1(h),24%
same,inhibition at 1 µM,FAK(h),8%
same,inhibition at 1 µM,GRK6(h),-8%
same,inhibition at 1 µM,EphA8(h),-7%
same,inhibition at 1 µM,PKG1β(h),1%
same,inhibition at 1 µM,PAK6(h),22%
same,inhibition at 1 µM,PKCγ(h),-2%
same,inhibition at 1 µM,SGK3(h),-27%
same,inhibition at 1 µM,Rse(h),10%
same,inhibition at 1 µM,DAPK2(h),13%
same,inhibition at 1 µM,NEK7(h),-2%
same,inhibition at 1 µM,EphA3(h),0%
